Assay results published in patent publication US12011444B2, “N-substituted indole derivatives as PGE2 receptor modulators” (Idorsia Pharmaceuticals Ltd, priority 2015, dated 2024).

How the values were obtained:
PTRGER4 (EP4) = PTRGER4 (EP4) (Homo sapiens (Human), UniProt P35408); experiment: hEP4 b-arrestin assay (PathHunter HEK 293 PTGER4 b-arrestin cells); assay type: cell-based; conditions: hEP4 b-arrestin assay (values without asterisk)
Outline: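 Stably transfected HEK293 cells carrying EP4–ProLink and β-arrestin 2–EA (β-gal fragment complementation), pre-incubated with compound 15 min at 37 °C, then stimulated with PGE2 (20 nM final) for 120 min at 37 °C. Chemiluminescence read after 1 h detection reagent at room temperature; activity per concentration expressed as percent of DMSO control.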

PTGER2 (EP2) = PTGER2 (EP2) (Homo sapiens (Human), UniProt P43116); experiment: hEP2 b-arrestin assay (PathHunter HEK 293 PTGER2 b-arrestin cells); assay type: cell-based; conditions: hEP2 b-arrestin assay (values without asterisk)
Chain of PTGER2 (EP2) (P43116 whole entry, the tested form may be a part): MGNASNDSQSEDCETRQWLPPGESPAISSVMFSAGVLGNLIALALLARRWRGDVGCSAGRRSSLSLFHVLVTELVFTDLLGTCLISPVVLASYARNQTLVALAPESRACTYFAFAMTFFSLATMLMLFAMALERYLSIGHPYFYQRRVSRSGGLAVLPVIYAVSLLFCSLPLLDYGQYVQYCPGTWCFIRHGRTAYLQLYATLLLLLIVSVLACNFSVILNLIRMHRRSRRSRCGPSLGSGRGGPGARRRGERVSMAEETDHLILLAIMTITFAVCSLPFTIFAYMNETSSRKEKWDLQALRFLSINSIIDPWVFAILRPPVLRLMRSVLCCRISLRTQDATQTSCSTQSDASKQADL
Outline: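 HEK293 cells expressing ProLink-tagged EP2 and EA-fused β-arrestin 2 (enzyme fragment complementation) were seeded 24 h, pre-incubated with compound 15 min at 37 °C, then stimulated with 5 μM PGE2 (final) for 120 min.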

Chain of PTRGER4 (EP4) (P35408 whole entry, looked up, the tested form may be a part): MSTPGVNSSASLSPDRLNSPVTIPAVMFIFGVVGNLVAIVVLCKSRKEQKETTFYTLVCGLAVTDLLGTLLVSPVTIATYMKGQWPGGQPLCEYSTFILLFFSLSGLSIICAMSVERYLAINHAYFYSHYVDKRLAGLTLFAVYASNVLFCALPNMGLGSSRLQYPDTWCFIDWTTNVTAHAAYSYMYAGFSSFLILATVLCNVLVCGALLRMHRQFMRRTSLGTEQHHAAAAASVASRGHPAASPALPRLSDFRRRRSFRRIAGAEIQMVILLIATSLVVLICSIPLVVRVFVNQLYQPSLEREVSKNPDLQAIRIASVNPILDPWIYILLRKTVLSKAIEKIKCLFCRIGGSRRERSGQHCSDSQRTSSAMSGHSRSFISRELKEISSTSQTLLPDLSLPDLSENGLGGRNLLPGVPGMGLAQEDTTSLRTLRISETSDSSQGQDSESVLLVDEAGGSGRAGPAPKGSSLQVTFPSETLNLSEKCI

Compound | IC50 (PTRGER4 (EP4)) | IC50 (PTGER2 (EP2))
CCOc1cc(-c2cc(NCCn3c(C#N)cc4c(C)c(F)cc(F)c43)ncn2)sc1C(=O)O [Example 940, 5-{6-[2-(2-Cyano-5,7-difluoro-4-methyl-indol-1-yl)-ethylamino]-pyrimidin-4-yl}-3-ethoxy-thiophene-2-carboxylic acid] | 3 nM | 10 nM
CCOc1cc(-c2cc(NCCn3c(C#N)cc4c(C)cc(F)c(F)c43)ncn2)sc1C(=O)O [Example 942, 5-{6-[2-(2-Cyano-6,7-difluoro-4-methyl-indol-1-yl)-ethylamino]-pyrimidin-4-yl}-3-ethoxy-thiophene-2-carboxylic acid] | 6 nM | 3 nM
CCOc1cc(-c2cc(NCCn3c(C#N)cc4c(OC)cc(F)c(F)c43)ncn2)sc1C(=O)O [Example 943, 5-{6-[2-(2-Cyano-6,7-difluoro-4-methoxy-indol-1-yl)-ethylamino]-pyrimidin-4-yl}-3-ethoxy-thiophene-2-carboxylic acid] | 2 nM | 4 nM
CCOc1cc(-c2cc(NCCn3c(C#N)cc4c(OC)cc(F)c(F)c43)ncn2)ccc1OCC(=O)O [Example 944, (4-{6-[2-(2-Cyano-6,7-difluoro-4-methoxy-indol-1-yl)-ethylamino]-pyrimidin-4-yl}-2-ethoxy-phenoxy)-acetic acid] | 7 nM | 16 nM
CCOc1cc(-c2cc(NCCn3c(C#N)cc4c(OC)cc(F)c(F)c43)ncn2)ccc1NCC(=O)O [Example 945, (4-{6-[2-(2-Cyano-6,7-difluoro-4-methoxy-indol-1-yl)-ethylamino]-pyrimidin-4-yl}-2-ethoxy-phenylamino)-acetic acid] | 2 nM | 9 nM
COc1ccc(F)c2c1cc(C#N)n2CCNc1cc(-c2ccc(C(=O)O)c(OCC(C)C)c2)ncn1 [Example 949, 4-{6-[2-(2-Cyano-7-fluoro-4-methoxy-indol-1-yl)-ethylamino]-pyrimidin-4-yl}-2-isobutoxy-benzoic acid] | 14 nM | 7 nM
COC(=O)c1ccc2cc(-c3cc(NCCn4c(C#N)cc5c(OC)ccc(F)c54)ncn3)[nH]c2c1 [Example 959, 2-{6-[2-(2-Cyano-7-fluoro-4-methoxy-indol-1-yl)-ethylamino]-pyrimidin-4-yl}-1H-indole-6-carboxylic acid methyl ester] | 137 nM | 3 nM
COc1ccc(F)c2c1cc(C#N)n2CCNc1cc(-c2cc3cc(C(=O)O)ccc3[nH]2)ncn1 [Example 960, 2-{6-[2-(2-Cyano-7-fluoro-4-methoxy-indol-1-yl)-ethylamino]-pyrimidin-4-yl}-1H-indole-5-carboxylic acid] | 4 nM | 9 nM
COc1ccc(F)c2c1cc(C#N)n2CCNc1cc(-c2cc3ccccc3[nH]2)ncn1 [Example 961, 7-Fluoro-1-{2-[6-(1H-indol-2-yl)-pyrimidin-4-ylamino]-ethyl}-4-methoxy-1H-indole-2-carbonitrile] | 34 nM | 12 nM
COC(=O)c1ccc2[nH]c(-c3cc(NCCn4c(C#N)cc5c(OC)ccc(F)c54)ncn3)cc2c1 [Example 962, 2-{6-[2-(2-Cyano-7-fluoro-4-methoxy-indol-1-yl)-ethylamino]-pyrimidin-4-yl}-1H-indole-5-carboxylic acid methyl ester] | 11 nM | 3 nM
COCCOc1ccc(-c2cc(NCCn3c(C#N)cc4c(OC)ccc(F)c43)ncn2)cc1 [Example 963, 7-Fluoro-4-methoxy-1-(2-{6-[4-(2-methoxy-ethoxy)-phenyl]-pyrimidin-4-ylamino}-ethyl)-1H-indole-2-carbonitrile] | 126 nM | 194 nM
COc1ccc(F)c2c1cc(C#N)n2CCNc1cc(-c2ccc(OCCO)cc2)ncn1 [Example 964, 7-Fluoro-1-(2-{6-[4-(2-hydroxy-ethoxy)-phenyl]-pyrimidin-4-ylamino}-ethyl)-4-methoxy-1H-indole-2-carbonitrile] | 22 nM | 41 nM
COc1ccc(F)c2c1cc(C#N)n2CCNc1cc(-c2ccc3cc[nH]c3c2)ncn1 [Example 966, 7-Fluoro-1-{2-[6-(1H-indol-6-yl)-pyrimidin-4-ylamino]-ethyl)-4-methoxy-1H-indole-2-carbonitrile] | 31 nM | 14 nM
COc1ccc(F)c2c1cc(C#N)n2CCNc1cc(-c2c[nH]c3cnccc23)ncn1 [Example 967, 7-Fluoro-4-methoxy-1-{2-[6-(1H-pyrrolo[2,3-c]pyridin-3-yl)-pyrimidin-4-ylamino]-ethyl}-1H-indole-2-carbonitrile] | 17 nM | 6 nM

Second part, the compound after the results:

IC50 (PTRGER4 (EP4)) | IC50 (PTGER2 (EP2)) | Compound
4 nM | 7 nM | CCCSc1cc(-c2cc(NCCn3c(C#N)cc4c(OC)ccc(F)c43)ncn2)ccc1C(=O)O [Example 935, 4-{6-[2-(2-Cyano-7-fluoro-4-methoxy-indol-1-yl)-ethylamino]-pyrimidin-4-yl}-2-propylsulfanyl-benzoic acid]
8 nM | 18 nM | CCCSc1cc(-c2cc(NCCn3c(C#N)cc4c(OC)cc(F)cc43)ncn2)ccc1C(=O)O [Example 936, 4-{6-[2-(2-Cyano-6-fluoro-4-methoxy-indol-1-yl)-ethylamino]-pyrimidin-4-yl}-2-propylsulfanyl-benzoic acid]
13 nM | 21 nM | COc1ccc(F)c2c1cc(C#N)n2CCNc1cc(-c2ccc(C(=O)O)c(SC(C)C)c2)ncn1 [Example 937, 4-{6-[2-(2-Cyano-7-fluoro-4-methoxy-indol-1-yl)-ethylamino]-pyrimidin-4-yl}-2-isopropylsulfanyl-benzoic acid]
29 nM | 38 nM | COc1cc(F)cc2c1cc(C#N)n2CCNc1cc(-c2ccc(C(=O)O)c(SC(C)C)c2)ncn1 [Example 938, 4-{6-[2-(2-Cyano-6-fluoro-4-methoxy-indol-1-yl)-ethylamino]-pyrimidin-4-yl}-2-isopropylsulfanyl-benzoic acid]
17 nM | 15 nM | CCCc1cc(-c2cc(NCCn3c(C#N)cc4c(OC)ccc(F)c43)ncn2)cc(F)c1C(=O)O [Example 939, 4-{6-[2-(2-Cyano-7-fluoro-4-methoxy-indol-1-yl)-ethylamino]-pyrimidin-4-yl}-2-fluoro-6-propyl-benzoic acid]
10 nM | 54 nM | COc1ccc(F)c2c1cc(C#N)n2CCNc1cc(-c2ccc(C(=O)O)c(CC(C)C)c2)ncn1 [Example 946, 4-{6-[2-(2-Cyano-7-fluoro-4-methoxy-indol-1-yl)-ethylamino]-pyrimidin-4-yl}-2-isobutyl-benzoic acid]
16 nM | 30 nM | CCCc1cc(-c2cc(NCCn3c(C#N)cc4c(OC)ccc(F)c43)ncn2)ccc1C(=O)O [Example 947, 4-{6-[2-(2-Cyano-7-fluoro-4-methoxy-indol-1-yl)-ethylamino]-pyrimidin-4-yl}-2-propyl-benzoic acid]
45 nM | 50 nM | CCc1cc(-c2cc(NCCn3c(C#N)cc4c(OC)ccc(F)c43)ncn2)ccc1C(=O)O [Example 948, 4-{6-[2-(2-Cyano-7-fluoro-4-methoxy-indol-1-yl)-ethylamino]-pyrimidin-4-yl}-2-ethyl-benzoic acid]
42 nM | 18 nM | CCCOc1cc(-c2cc(NCCn3c(C#N)cc4c(OC)ccc(F)c43)ncn2)ccc1C(=O)O [Example 950, 4-{6-[2-(2-Cyano-7-fluoro-4-methoxy-indol-1-yl)-ethylamino]-pyrimidin-4-yl}-2-propoxy-benzoic acid]
27 nM | 15 nM | CCSc1cc(-c2cc(NCCn3c(C#N)cc4c(C)ccc(F)c43)ncn2)ccc1C(=O)O [Example 951, 4-{6-[2-(2-Cyano-7-fluoro-4-methyl-indol-1-yl)-ethylamino]-pyrimidin-4-yl}-2-ethylsulfanyl-benzoic acid]
21 nM | 5 nM | CCSc1cc(-c2cc(NCCn3c(C#N)cc4c(OC)cccc43)ncn2)ccc1C(=O)O [Example 952, 4-{6-[2-(2-Cyano-4-methoxy-indol-1-yl)-ethylamino]-pyrimidin-4-yl}-2-ethylsulfanyl-benzoic acid]
21 nM | 5 nM | CCSc1cc(-c2cc(NCCn3c(C#N)cc4c(OC)ccc(F)c43)ncn2)ccc1C(=O)O [Example 953, 4-{6-[2-(2-Cyano-7-fluoro-4-methoxy-indol-1-yl)-ethylamino]-pyrimidin-4-yl}-2-ethylsulfanyl-benzoic acid]
41 nM | 15 nM | CCSc1cc(-c2cc(NCCn3c(C#N)cc4c(OC)cc(F)cc43)ncn2)ccc1C(=O)O [Example 954, 4-{6-[2-(2-Cyano-6-fluoro-4-methoxy-indol-1-yl)-ethylamino]-pyrimidin-4-yl}-2-ethylsulfanyl-benzoic acid]
37 nM | 21 nM | CCOc1cc(-c2cc(NCCn3c(C#N)cc4c(C)cc(F)c(F)c43)ncn2)ccc1C(=O)O [Example 956, 4-{6-[2-(2-Cyano-6,7-difluoro-4-methyl-indol-1-yl)-ethylamino]-pyrimidin-4-yl}-2-ethoxy-benzoic acid]
54 nM | 56 nM | CCOc1cc(-c2cc(NCCn3c(C#N)cc4c(OC)cc(F)c(F)c43)ncn2)ccc1C(=O)O [Example 957, 4-{6-[2-(2-Cyano-6,7-difluoro-4-methoxy-indol-1-yl)-ethylamino]-pyrimidin-4-yl}-2-ethoxy-benzoic acid]
18 nM | 13 nM | CNc1cc(-c2cc(NCCn3c(C#N)cc4c(OC)cccc43)ncn2)ccc1C(=O)O [Example 958, 4-{6-[2-(2-Cyano-4-methoxy-indol-1-yl)-ethylamino]-pyrimidin-4-yl}-2-methylamino-benzoic acid]
